Laboratory results published in ChEMBL document CHEMBL3045835, “Comparative study of conventional and microwave-assisted synthesis of some Schiff bases and their potential as antimicrobial agents” (2012).
Values after ≈ are worked out from the molar mass of the structure shown.

How the values were obtained:
Format in all cases: functional
[1] = system: Escherichia coli; assay: Antibacterial activity against Escherichia coli MTCC 1573 at 1500 ug/ml after 18 hr by cup-plate method; conditions: MTCC 1573, 18 h, read-out: DIZ
[2] = system: Bacillus subtilis; assay: Antibacterial activity against Bacillus subtilis MTCC 441 at 1500 ug/ml after 18 hr by cup plate method; conditions: MTCC 441, 18 h, read-out: DIZ
[3] = system: Staphylococcus aureus; assay: Antibacterial activity against Staphylococcus aureus MTCC 1430 at 500 ug/ml after 18 hr by cup-plate method; conditions: MTCC 1430, 18 h, read-out: DIZ
[4] = system: Aspergillus niger; assay: Antifungal activity against Aspergillus niger MTCC 2546 at 1500 ug/ml after 18 hr by cup-plate method; conditions: MTCC 2546, 18 h, read-out: DIZ
[5] = system: Pseudomonas aeruginosa; assay: Antibacterial activity against Pseudomonas aeruginosa MTCC 424 after 24 hr by broth dilution method; conditions: MTCC 424, 24 h
[6] = system: Pseudomonas fluorescens; assay: Antibacterial activity against Pseudomonas fluorescens MTCC 2421 at 1000 ug/ml after 18 hr by cup-plate method; conditions: MTCC 2421, 18 h, read-out: DIZ
[7] = system: Pseudomonas fluorescens; assay: Antibacterial activity against Pseudomonas fluorescens MTCC 2421 at 500 ug/ml after 18 hr by cup-plate method; conditions: MTCC 2421, 18 h, read-out: DIZ
[8] = system: Bacillus pumilus; assay: Antibacterial activity against Bacillus pumilus MTCC 1456 at 100 ug/ml after 18 hr by cup-plate method; conditions: MTCC 1456, 18 h, read-out: DIZ
[9] = system: Bacillus subtilis; assay: Antibacterial activity against Bacillus subtilis MTCC 441 after 24 hr by broth dilution method; conditions: MTCC 441, 24 h
[10] = system: Bacillus pumilus; assay: Antibacterial activity against Bacillus pumilus MTCC 1456 at 1500 ug/ml after 18 hr by cup-plate method; conditions: MTCC 1456, 18 h, read-out: DIZ
[11] = system: Aspergillus niger; assay: Antifungal activity against Aspergillus niger MTCC 2546 at 500 ug/ml after 18 hr by cup-plate method; conditions: MTCC 2546, 18 h, read-out: DIZ
[12] = system: Micrococcus luteus; assay: Antibacterial activity against Micrococcus luteus MTCC 1538 at 200 ug/ml after 18 hr by cup-plate method; conditions: MTCC 1538, 18 h, read-out: DIZ
[13] = system: Penicillium chrysogenum; assay: Antifungal activity against Penicillium chrysogenum MTCC 161 at 500 ug/ml after 18 hr by cup-plate method; conditions: MTCC 161, 18 h, read-out: DIZ
[14] = system: Aspergillus niger; assay: Antifungal activity against Aspergillus niger MTCC 2546 after 24 hr by broth dilution method; conditions: MTCC 2546, 24 h
[15] = system: Aspergillus niger; assay: Antifungal activity against Aspergillus niger MTCC 2546 at 1000 ug/ml after 18 hr by cup-plate method; conditions: MTCC 2546, 18 h, read-out: DIZ
[16] = system: Aspergillus niger; assay: Antifungal activity against Aspergillus niger MTCC 2546 at 100 ug/ml after 18 hr by cup-plate method; conditions: MTCC 2546, 18 h, read-out: DIZ
[17] = system: Micrococcus luteus; assay: Antibacterial activity against Micrococcus luteus MTCC 1538 at 1000 ug/ml after 18 hr by cup-plate method; conditions: MTCC 1538, 18 h, read-out: DIZ
[18] = system: Bacillus pumilus; assay: Antibacterial activity against Bacillus pumilus MTCC 1456 at 500 ug/ml after 18 hr by cup-plate method; conditions: MTCC 1456, 18 h, read-out: DIZ
[19] = system: Aspergillus niger; assay: Antifungal activity against Aspergillus niger MTCC 2546 at 200 ug/ml after 18 hr by cup-plate method; conditions: MTCC 2546, 18 h, read-out: DIZ
[20] = system: Escherichia coli; assay: Antibacterial activity against Escherichia coli MTCC 1573 at 100 ug/ml after 18 hr by cup-plate method; conditions: MTCC 1573, 18 h, read-out: DIZ
[21] = system: Bacillus subtilis; assay: Antibacterial activity against Bacillus subtilis MTCC 441 at 500 ug/ml after 18 hr by cup plate method; conditions: MTCC 441, 18 h, read-out: DIZ
[22] = system: Micrococcus luteus; assay: Antibacterial activity against Micrococcus luteus MTCC 1538 at 1500 ug/ml after 18 hr by cup-plate method; conditions: MTCC 1538, 18 h, read-out: DIZ
[23] = system: Bacillus pumilus; assay: Antibacterial activity against Bacillus pumilus MTCC 1456 after 24 hr by broth dilution method; conditions: MTCC 1456, 24 h
[24] = system: Pseudomonas aeruginosa; assay: Antibacterial activity against Pseudomonas aeruginosa MTCC 424 at 1000 ug/ml after 18 hr by cup-plate method; conditions: MTCC 424, 18 h, read-out: DIZ
[25] = system: Staphylococcus aureus; assay: Antibacterial activity against Staphylococcus aureus MTCC 1430 at 100 ug/ml after 18 hr by cup-plate method; conditions: MTCC 1430, 18 h, read-out: DIZ
[26] = system: Penicillium chrysogenum; assay: Antifungal activity against Penicillium chrysogenum MTCC 161 at 200 ug/ml after 18 hr by cup-plate method; conditions: MTCC 161, 18 h, read-out: DIZ
[27] = system: Staphylococcus aureus; assay: Antibacterial activity against Staphylococcus aureus MTCC 1430 after 24 hr by broth dilution method; conditions: MTCC 1430, 24 h

Clc1ccc(/N=C/c2cccs2)cc1
zone of inhibition at 1500 µg/mL [1]: 20 mm | zone of inhibition at 1500 µg/mL [2]: 21 mm | zone of inhibition at 500 µg/mL [3]: 15 mm | zone of inhibition at 1500 µg/mL [4]: 18 mm | MIC [5]: 300 µg/mL (≈ 1350 µM) | zone of inhibition at 1000 µg/mL [6]: 18 mm | zone of inhibition at 500 µg/mL [7]: 16 mm | zone of inhibition at 100 µg/mL [8]: 13 mm | MIC [9]: 400 µg/mL (≈ 1800 µM) | zone of inhibition at 1500 µg/mL [10]: 20 mm | zone of inhibition at 500 µg/mL [11]: 12 mm | zone of inhibition at 200 µg/mL [12]: 15 mm | zone of inhibition at 500 µg/mL [13]: 16 mm | MIC [14]: 400 µg/mL (≈ 1800 µM) | zone of inhibition at 1000 µg/mL [15]: 17 mm | zone of inhibition at 100 µg/mL [16]: 10 mm | zone of inhibition at 1000 µg/mL [17]: 20 mm | zone of inhibition at 500 µg/mL [18]: 17 mm | zone of inhibition at 200 µg/mL [19]: 11 mm | zone of inhibition at 100 µg/mL [20]: 13 mm | zone of inhibition at 500 µg/mL [21]: 14 mm | zone of inhibition at 1500 µg/mL [22]: 24 mm | MIC [23]: 200 µg/mL (≈ 902 µM) | zone of inhibition at 1000 µg/mL [24]: 17 mm | zone of inhibition at 100 µg/mL [25]: 12 mm | zone of inhibition at 200 µg/mL [26]: 14 mm | MIC [27]: 300 µg/mL (≈ 1350 µM)
